Experimental findings from patent US10808128B2, “Compounds as fluorescent probes, synthesis and applications thereof” (priority 2018, dated 2020) are described below.

Data set [1] concerns mitochondria of live human primary fibroblasts. Nature of the data set: Photo-toxicity study during repeat photo-illumination and fast mitochondrial imaging. In kind it is cell-based. The following applies: for photostability during fast imaging of mitochondria: human primary fibroblasts, fast time lapse (10 sec interval, 300 seconds). The text has this: Fast (10 sec interval) time lapse images were acquired for 300 seconds.

Data set [2] has as its system mitochondria of human primary fibroblast cells. Nature of the data set: Colocalization of HC-2 with MitoTracker Green. It counts as cell-based. As to conditions: live human primary fibroblast cells. How it is done:
(§1) Formula I compounds (dyes) are positively charged and can be easily targeted to the mitochondria of the live cells. The dyes are highly specific for functional mitochondria. Localization is confirmed by ‘colocalization’ assays with mitochondria specific commercial dyes and high-resolution microscopy. […] This stock solution was stored at about 4° C.

Data set [3] deals with mitochondria of human embryonic kidney (HEK) cells. Nature of the data set: Effect of CCCP on HC-2 fluorescence. In kind it is cell-based. As to conditions: 5 μM CCCP. How it is done: as §1
In data set [4] the test system is mitochondria of live HEK 293 cells. Nature of the data set: Effect of Monensin on HC-2 stained mitochondria. It counts as cell-based, human. As to conditions: HC-2 250 nM, Monensin 10 μM, 0-90 minutes.
Data set [5] concerns live human pluripotent stem cells (hPSCs). Nature of the data set: Mitochondrial imaging of live pluripotent stem cells. It counts as cell-based. The following applies: 250 nM, 30 minutes, confocal.
Data set [6] is described as follows: Stability of dye stock solution. In kind it is physicochemical. As to conditions: 1 mM in 50% DMSO-water, stored at about 4° C. On the procedure:
as §1

The nature of data set [7]: HC-1 fluorescence in surfactant micelles (SDS, TritonX-100); CMC by sigmoidal fitting. It counts as physicochemical. The following applies: from HC-1 (2.5 μM) fluorescence intensity versus surfactant concentration. How it is done:
Initially 300 mM solution of sodium dodecyl sulfate (SDS) in milli-Q water was prepared. Then, solution of varied concentrations (1-300 mM) by serial dilution was prepared. All the prepared solutions were heated at 70° C. for about 15 minutes and stored at room temperature overnight. Similarly, a stock of 10 mM was prepared for TritonX-100 also. Then solution of different concentration (0.05-4 mM) was prepared by serial dilution.

Data set [8] is described as follows: UV-Vis and steady state fluorescence of HC-1 in ten solvents; fluorescence quantum yield. It counts as physicochemical. As to conditions: for Quantum yield: reference Rhodamine B (0.55). On the procedure:
UV-Vis measurement was performed in Shimadzu UV-Vis spectrophotometer (U2600) and steady state fluorescence study was performed in Horiba-Yobin (Fluorolog3) fluorescence spectrophotometer. For all the fluorescence measurements, excitation and emission slits were kept constant at 2 nm (except studies on pH dependence: excitation/emission=2/4 nm respectively). Final concentration was 2.5 μM (except for measurement of fluorescence quantum yield [1 μM] and lifetime [25 μM]) for all the spectroscopic studies.
The HC-1 absorption and fluorescence were recorded in ten solvents of varying polarity and viscosity.
An aqueous solution of Rhodamine B was used as reference. Fluorescence (integrated intensities) and absorbance values were obtained and the quantum yield was calculated using the following equation;
φ and φr: Quantum yield of sample and reference (0.55) respectively; A and Ar: Absorbance of sample and reference respectively; L: path length of the cuvette (here is same); N and Nr: refractive index of the solvents containing sample and reference; I and Ir: Integrated intensity of fluorescence emission of sample and reference respectively.

Data set [9] in a line: Effect of pH, ions, serum protein, plasmid DNA and glutathione on HC-1 fluorescence. It counts as physicochemical. As to conditions: HC-1 2.5 μM. On the procedure: 0.1 M buffers of identical ionic strength solution were used for carryout the experiments. For pH 3, 4, 5 and 5.5, acetate buffer was used, for pH 6.2, 6.9 and 7.4, phosphate buffer was used and for pH 8 and 9.2, Tris-HCl buffer was used. The used salts were Sodium Chloride (NaCl), Potassium Chloride (KCl), Magnesium Chloride (MgCl2), Zinc Chloride (ZnCl2), Nickel Chloride (NiCl2) and Ferric Chloride (FeCl3). Final concentration of the cations (except Zn) was 10 mM and prepared in 1× Phosphate Buffer Saline. For Zn (II), saturated aqueous solution was used. Bovine Serum Albumin (BSA), plasmid DNA and glutathione concentration were at 1 mg−ml^−1, 5 μg−ml^−1 and 10 μM respectively. […] Fluorescence measurement was performed after 30 minutes of incubation.

Data set [10] deals with mitochondria of U2OS cells. Nature of the data set: Imaging of live cell mitochondria by HC-1 and co-localization assay with MitoTracker Green. In kind it is cell-based, human. As to conditions: confocal. On the procedure: For imaging, cells were plated on fibronectin coated (final concentration of 10 μg/ml) glass-bottomed dishes and allowed to attach. […] Cells were then washed twice with DPBS and fresh serum-free media was added.
Co-localization assay of HC-1 using MitoTracker Green: Cells were labeled using both MitoTracker Green and HC-1 dyes (by aforementioned protocol). Confocal images were taken using Olympus FV1000 Confocal microscope (×60 oil immersion objective at 1.6× optical zoom). Excitation parameters used were 488 nm excitation and 500-530 nm emission for MitoTracker Green, and 543 nm excitation and emissions above 560 nm for HCl. Pearson correlation dot plot was constructed using Coloc2 plugin of ImageJ.

Data set [11] concerns mitochondria of U2OS cells. Nature of the data set: Effect of CCCP on HC-1 fluorescence (mitochondrial membrane potential). In kind it is cell-based, human. The following applies: 5 μM CCCP. How it is done: Effect of Carbonyl Cyanide 3-Chloro Phenylhydrazone [CCCP]: Dye-labeled cells were imaged on the Olympus IX83 inverted microscope coupled to a 560 nm laser line connected to a Evolve 512 Delta EMCCD camera. 5 μM CCCP (final concentration) was used for the assay. Different regions were selected on the dish and imaged before the addition of CCCP and after addition at an interval of about 5 minutes for duration of about 15 minutes.

Data set [12] deals with mitochondria of U2OS cells. Nature of the data set: Effect of Monensin on HC-1 stained mitochondria. As to conditions: Monensin 10 µM / 10 μM, 0, 30, 60 minutes. In kind it is cell-based, human.
Data set [13] concerns E14TG2a mouse embryonic stem cells. Nature of the data set: Imaging HC-1 stained mitochondria of embryonic stem cells, incl. long term imaging to check cytotoxicity. In kind it is cell-based. As to conditions: E14TG2a mouse ESCs with LIF. On the procedure:
E14TG2a (mouse embryonic stem cells) were cultured in GMEM supplemented with FBS, Glutamine, Non-essential amino acids, β-mercaptoethanol, Penicilin-streptomycin and depending on culture conditions, with or without […] (LIF). […] Images were acquired on the FV1000 confocal microscope. Imaging set up used in the present example was same as the imaging set up used for colocalization described above.
Confocal (FV1000, Olympus) images were acquired for 12 hours at 3 hours interval.

The subject of data set [14] is primary mouse fibroblasts. Nature of the data set: Imaging local order and viscosity of mitochondria during fibroblast activation. In kind it is cell-based. As to conditions: HC-1 250 nM with TMRE 125 nM. On the procedure: A study on the use of HC-1 for imaging local order and viscosity of mitochondria and use of said imaging to measure changes in mitochondrial function and cellular state and function was carried out.

Setting [15] is: HC-1 in Ethylene glycol (13.5 cP).
[16] abbreviates: HC-1 in Glycerol (9.50 cP as printed).

Entries after “also recorded” stand apart in the source; their conditions may differ.

Take “tetramethylrhodamine, ethyl ester [TMRE, reference compound]”: in data set [1], the “photo-toxicity during repeat photo-illumination” value is “irradiation induced depolarization of mitochondrial membrane” and the “photostability during fast imaging of mitochondria” value (from here on “photostability during fast imaging”) was “photobleaches”.

Regarding `CN(C)c1ccc(/C=C/C=C/C2=[N+](C)c3ccc4ccccc4c3C2(C)C)cc1.[I-]` [HC-2, 2-((1E,3E)-4-(4-(Dimethylamino)phenyl)buta-1,3-dien-1-yl)-1,1,3-trimethyl-1H-benzo[e]indol-3-ium iodide], the “2D intensity correlation with MitoTracker Green (Pearson R)” value in data set [2] is given as 0.91. Besides, in data set [3], the “effect of CCCP on HC-2 fluorescence” value is given as “loss of HC-2 fluorescence”. Further, the “effect of Monensin on HC-2 fluorescence in mitochondria” value in data set [4] is on record as “time-dependent increase in fluorescence intensity; also recorded: Time dependent increase in fluorescence intensity”. Further, the “photostability during fast imaging” value in data set [1] is listed as “highly photo-stable”. Further, the “staining of mitochondria of live hPSCs” value in [5] is listed as “uniform staining of the mitochondria”. For the same compound, the “stability of stock solution” value in data set [6] is “stable for one year”.

As to TritonX-100, the “critical micellar concentration (CMC)” value in [7] is given as approximately 1 mM.

Turning to `CN(C)c1ccc(/C=C/C2=[N+](C)c3ccc4ccccc4c3C2(C)C)cc1.[I-]` [HC-1, (E)-2-(4-(Dimethylamino)styryl)-1,1,3-trimethyl-1H-benzo[e]indol-3-ium iodide], the λabs in data set [8] (HC-1 in Acetone (0.32 cP)) was 553 nm; in data set [8] (HC-1 in Acetonitrile (0.37 cP)), 577 nm; in data set [8] (HC-1 in Benzene (0.6 cP)), 548 nm; in data set [8] (HC-1 in DMF (0.85 cP)), 553 nm; in [8] (HC-1 in Ethanol (1.2 cP)), 556 nm; in data set [8] (setting [15]), 562 nm. Also, the λabs is on record as 564 nm in data set [8] (setting [16]), 552 nm in data set [8] (HC-1 in Methanol (0.6 cP)) and 542 nm in data set [8] (HC-1 in Water (1 cP)). The λem in data set [8] (HC-1 in Acetone (0.32 cP)) was determined as 606 nm; in data set [8] (HC-1 in Acetonitrile (0.37 cP)), 613 nm; in data set [8] (HC-1 in Benzene (0.6 cP)) it was 608 nm; in data set [8] (HC-1 in DCM (0.43 cP)) it was 608 nm; in data set [8] (HC-1 in DMF (0.85 cP)), 610 nm; in data set [8] (HC-1 in Ethanol (1.2 cP)) it was 607 nm. The λem was 610 nm in data set [8] (setting [15]), 610 nm in data set [8] (setting [16]), 603 nm in [8] (HC-1 in Methanol (0.6 cP)) and 605 nm in data set [8] (HC-1 in Water (1 cP)). In addition, the Quantum yield in [8] (HC-1 in Acetone (0.32 cP)) amounted to 0.014 ± 0.0002; in data set [8] (HC-1 in Acetonitrile (0.37 cP)), 0.028 ± 0.0002; in data set [8] (HC-1 in Benzene (0.6 cP)) it was 0.014 ± 0.0001; in data set [8] (HC-1 in DCM (0.43 cP)) it was 0.033 ± 0.0005; in data set [8] (HC-1 in DMF (0.85 cP)) it was 0.028 ± 0.0003; in [8] (HC-1 in Ethanol (1.2 cP)), 0.024 ± 0.0002. For the same compound, the Quantum yield in [8] (setting [15]) is 0.087 ± 0.0004; in data set [8] (setting [16]) it was 0.477 ± 0.0005; in data set [8] (HC-1 in Methanol (0.6 cP)), 0.018 ± 0.0002; in data set [8] (HC-1 in Water (1 cP)), 0.034 ± 0.001. The “effect of pH on HC-1 emission” value in [9] (0.1 M buffers pH 3-9.2, small changes at ~pH 3 or ~pH 9) is recorded as “little or no effect”. The “effect of metal ions, serum proteins, plasmid DNA and glutathione (GSH) on HC-1 emission” value in data set [9] (30 minutes incubation) was “did not significantly affect”. Further, in data set [10], the “2D intensity correlation with MitoTracker Green (Pearson R)” value is 0.95. The “effect of CCCP on HC-1 fluorescence” value in data set [11] was “rapid and complete loss of HC-1 fluorescence”. In addition, the “effect of Monensin on HC-1 fluorescence in mitochondria” value in data set [12] is “significant increase in HC-1 fluorescence; also recorded: sensitive to changes in mitochondrial ordering”. Further, the “mitochondrial staining of embryonic stem cells” value in data set [13] was “bright staining of the mitochondrial structures”. Further, the “photostability during fast imaging” value in data set [1] is reported as “highly photo-stable; also recorded: significantly more photostable”. Further, in data set [5], the “staining of mitochondria of live hPSCs” value is “uniform staining of the mitochondria”. Also, the “change of mitochondrial local ordering in activated fibroblasts” value in [14] is reported as “increase in local ordering of the mitochondria”.

On to `CCCCCCCCCCCCOS(=O)(=O)[O-].[Na+]` [SDS, sodium dodecyl sulphate], for which the “critical micellar concentration (CMC)” value in [7] was approximately 7.5 mM.
